For the assay, the target named is T1, mAChR M1 (UniProt P11229).
T1 sequence (P11229 1-460): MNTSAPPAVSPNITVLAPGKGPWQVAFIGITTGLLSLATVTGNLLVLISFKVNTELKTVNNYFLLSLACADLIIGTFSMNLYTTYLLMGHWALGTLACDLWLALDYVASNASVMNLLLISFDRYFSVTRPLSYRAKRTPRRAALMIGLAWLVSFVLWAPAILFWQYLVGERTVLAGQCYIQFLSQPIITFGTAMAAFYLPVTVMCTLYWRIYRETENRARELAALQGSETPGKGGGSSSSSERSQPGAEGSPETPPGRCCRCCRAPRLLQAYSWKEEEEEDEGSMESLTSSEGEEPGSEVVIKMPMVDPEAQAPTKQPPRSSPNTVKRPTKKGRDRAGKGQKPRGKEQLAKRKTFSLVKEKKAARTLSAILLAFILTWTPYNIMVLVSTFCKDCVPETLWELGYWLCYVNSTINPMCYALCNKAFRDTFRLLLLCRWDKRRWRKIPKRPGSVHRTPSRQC
The assay is described as follows: mAChR M1 cell-based functional assay (calcium mobilization, potentiation of EC20 acetylcholine response). As to conditions: for Emax: % ACh maximum at 30 μM; for EC50: CHO-K1 cells expressing mAChR M1, increase in EC20 acetylcholine response, >10 μM estimated where no plateau in the curve. How it is done:
Chinese hamster ovary (CHO-K1) cells stably expressing rat (r)M1 were purchased from the American Type Culture Collection and cultured according to their indicated protocol. […] To make stable rM2, hM2, rM3, hM4, and rM4 cell lines for use in calcium mobilization assays, these cells also were stably transfected with a chimeric G-protein (Gqi5) (provided by B. R. Conklin, University of California, San Francisco) using Lipofectamine 2000. rM1, hM1, rM3, hM3, rM5, and hM5 cells were grown in Ham's F-12 medium containing 10% heat-inactivated fetal bovine serum (FBS), 20 mM HEPES, and 50 μg/mL G418 sulfate. rM2-Gqi5, hM2-Gqi5, and hM4-Gqi5 cells were grown in the same medium also containing 500 μg/mL Hygromycin B. Stable rM4-Gqi5 cells were grown in DMEM containing 10% heat-inactivated FBS, 20 mM HEPES, 400 μg/mL G418 sulfate, and 500 μg/mL Hygromycin B.
For high throughput measurement of agonist-evoked increases in intracellular calcium, CHO-K1 cells stably expressing muscarinic receptors were plated in growth medium lacking G418 and hygromycin at 15,000 cells/20 μL/well in Greiner 384-well black-walled, tissue culture (TC)-treated, clear-bottom plates (VWR). Cells were incubated overnight at 37° C. and 5% CO2. […] Compound master plates were formatted in an 11 point CRC format (1:3 dilutions) in 100% DMSO with a starting concentration of 10 mM using the BRAVO liquid handler (Agilent). Test compound CRCs were then transferred to daughter plates ([…]) using the Echo acoustic plate reformatter (Labcyte, Sunnyvale, Calif.) and then diluted into assay buffer (40 μL) to a 2× stock using a Thermo Fisher Combi (Thermo Fisher Scientific, Waltham, Mass.).
Calcium flux was measured using the Functional Drug Screening System (FDSS) 6000 (Hamamatsu Corporation, Tokyo, Japan) as an increase in the fluorescent static ratio. Compounds were applied to cells (20 μL, 2×) using the automated system of the FDSS 6000 at 4 s into the 300 s protocol and the data were collected at 1 Hz. […] Agonist activity was analyzed as a concentration-dependent increase in calcium mobilization upon compound addition. Positive allosteric modulator activity was analyzed as a concentration-dependent increase in the EC20 acetylcholine response. Antagonist activity was analyzed as a concentration-dependent decrease in the EC80 acetylcholine response. Concentration-response curves were generated using a four-parameter logistical equation in XLfit curve fitting software (IDBS, Bridgewater, N.J.) for Excel (Microsoft, Redmond, Wash.) or Prism (GraphPad Software, Inc., San Diego, Calif.).
The calcium mobilization assay was also used to determine “efficacy”. In the context of the assays carried out for the data in Table II, “efficacy” (% ACh at 30 μM) is defined as the maximal response in the calcium flux as determined by the sigmoidal curve fit of the concentration response curve, or in the absence of an acceptable curve fit, the response recorded at 30 μM test compound, stated as a percentage of the response elicited by a concentration of Ach that induces approximately 80% of a maximal (i.e. saturating) ACh response.
Substituted benzylspiroindolin-2-one analogs were synthesized as described above. Activity (EC50 and Emax) was determined in the mAChR M1 cell-based functional assay as described above and the data are shown in Table III. The compound number corresponds to the compound numbers used in Tables I and II.

The structures appear in SMILES notation.

Results on 13 compounds are retold here after US9073935B2, “Substituted benzylspiroindolin-2-one analogs as positive allosteric modulators of the muscarinic acetylcholine receptor M1” (VANDERBILT UNIVERSITY, priority 2011, dated 2015).

In general, Emax refers to the greatest response seen or fitted, relative to the assay's reference. The term EC50 denotes the concentration giving half of the maximal effect.

For the compound `Cn1cc(-c2ccc(CN3C(=O)C4(CCN(C5CCCC5)C4)c4ccccc43)cc2F)cn1` (centres unmarked) [Compound B8], the Emax worked out at 36% and the EC50 was 2 µM.
Turning to `Cn1cc(-c2ccc(CN3C(=O)C4(CCN(C5CCCSC5)CC4)c4ccccc43)c(F)c2)cn1` (centres unmarked) [Compound B29], the Emax was found to be 42% and the concentration giving a half-maximal response (EC50) was 3.7 µM.
The corresponding values for `Cn1cc(-c2ccc(CN3C(=O)C4(CCN(C5CCSC5)CC4)c4ccccc43)c(F)c2)cn1` (centres unmarked) [Compound B42] are 51% and 4.9 µM.
The corresponding values for `CN1CCCC(N2CCC3(CC2)C(=O)N(Cc2ccc(-c4cnn(C)c4)cc2F)c2ccccc23)C1` (centres unmarked) [Compound B53] are 57% and 6.7 µM.
The like results for `Cn1cc(-c2ccc(CN3C(=O)C4(CCN(C5CCCCC5)C4)c4ccccc43)c(F)c2)cn1` (single isomer, unassigned) [Compound B58] were, in that order, 39% and more than 10 µM.
As to `Cn1cc(-c2ccc(CN3C(=O)C4(CCN(Cc5ccccc5)C4)c4ccccc43)c(F)c2)cn1` (centres unmarked) [Compound B57], the Emax worked out at 36% and the EC50 was more than 10 µM.
The like results for `CC1CCCC1N1CCC2(C1)C(=O)N(Cc1ccc(-c3cnn(C)c3)cc1F)c1ccccc12` (centres unmarked) [Compound B54] were, in that order, 51% and 7 µM.
The corresponding values for `CN1CCC2(C1)C(=O)N(Cc1c(F)cc(-c3cccc4nn(C)cc34)cc1F)c1ccccc12` (centres unmarked) [Compound B75] are 66% and 5.4 µM.
The like results for `Cn1cc(-c2ccc(CN3C(=O)C4(CCN(C(=O)C5CC5)C4)c4ccccc43)c(F)c2)cn1` (centres unmarked) [Compound B41] were, in that order, 56% and 4.9 µM.
With `CN1CCC2(C1)C(=O)N(Cc1ccc(-c3cnn(C)c3)cc1F)c1ccccc12` (single isomer, unassigned) [Compound B31, 1-(2-fluoro-4-(1-methyl-1H-pyrazol-4-yl)benzyl)-1′-methylspiro[indoline-3,3′-pyrrolidin]-2-one], the Emax amounted to 76% and the EC50 is 3.8 µM.
The corresponding values for `Cn1cc(-c2ccc(CN3C(=O)C4(CCN(C5COC5)C4)c4ccccc43)c(F)c2)cn1` (centres unmarked) [Compound B28] are 57% and 3.7 µM.
The corresponding values for `Cn1cc(-c2ccc(CN3C(=O)C4(CCN(C5CNC5)C4)c4ccccc43)c(F)c2)cn1` (centres unmarked) [Compound B50] are 58% and 6 µM.
The like results for `Cn1cc(-c2ccc(CN3C(=O)C4(CCN(C5CCSCC5)CC4)c4ccccc43)c(F)c2)cn1` [Compound B40] were, in that order, 38% and 4.7 µM.
